Experimental data reported in patent publication US10966962B2, “Method for treating neurodegenerative diseases” (THE BOARD OF TRUSTEES OF THE LELAND STANFORD JUNIOR …, priority 2014, dated 2021).

How the values were obtained:
microglia [1] = assay: Ex vivo TNF-α production by microglia from MPTP-treated FF and Cre animals; format: in vivo, mice; conditions: 2-hour ex vivo assay, Day 4
Method: Animals with microglia-specific deletion of Ppargc1a were generated by crossing mice harboring the foxed allele of Ppargc1a (Ppargc1a^LoxP/LoxP) with those expressing Tamoxifen inducible Cre recombinase under the control of Cx3cr1 promoter (Cx3cr1^CreER). To induce Cre-mediated deletion of Ppargc1a in Cx3cr1 expressing cells, Tamoxifen (Sigma) in 200 μl corn oil (50 mg/ml, Sigma) was administered to 3 weeks old (Ppargc1a^LoxP/LoxPCx3cr1^CreER) mice twice at 48-hour intervals (Wolf et al Front Cell Neurosci 2013, 18;7:26. doi: 10.3389/fnce1.2013.00026). Littermates carrying the foxed allele of Ppargc1a alleles but lacking expression of Cre recombinase (Ppargc1a^LoxP/LoxP) were used as controls. Animals were rested for another 5-6 weeks before MPTP was administered. Animals with microglia-specific deletion of Ppargc1a and controls were generated as described in Example 1. […] PBS-perfused brain tissues of sacrificed animals were digested with Collagenase IV and isolated by flow cytometry. For measuring microglial production of TNF-α, MPTP-ZLN (n=5), MPTP-Ctrl (n=10) and Veh (n=6) animals were sacrificed. Isolated microglia were subjected to a 2-hour ex vivo TNF-α production assay. Supernatant samples were collected for TNF-α measurement with CBA technology (BD). […] Unpaired t-tests were used for statistical analyses.

ALS transgenic mice = assay: Wheel-running test in ALS transgenic animals; format: in vivo; conditions: 25 mg/kg orally 3 times a week for 4 weeks from 9 weeks of age
Method: ALS transgenic mice were orally treated 3 times a week for 4 weeks with 0.5% methylcellulose or ZLN005 (Sigma) at 25 mg/kg in 0.5% methylcellulose, starting at 9 weeks of age. A wheel-running test was performed similarly to that described in Example 8. The animals started training at 13 weeks of age for 1.5 weeks of training on a treadmill at a constant speed of 10 rpm and then for 1.5 weeks of training at an accelerating speed from 5-15 rpm. After the training period at 14.5 and 16 weeks of age, animals were tested for motor performance at a constant speed and at an accelerating speed, respectively. […] Unpaired t-tests were used for statistical analyses.

[2] = test system: CD115+CD11b+blood monocytes; assay: Systemic inflammation in ALS transgenic animals (blood monocytes, serum TNF-α ELISA); format: in vivo, mice; conditions: 25 mg/kg orally 3 times a week for 8 weeks
Method: ALS transgenic animals were orally treated 3 times a week for 8 weeks with 0.5% methylcellulose or ZLN005 (Sigma) at 25 mg/kg in 0.5% methylcellulose, starting at 5 weeks of age. For measuring the frequency of CD115+CD11b+blood monocytes, ALS-Ctrl transgenic animals (n=10), ALS-ZLN (n=10), and WT animal (n=10) were sacrificed at 13 weeks of age. The Y-axis in FIGS. 21A and 21B represents % of total monocytes and % of Ly6C+ inflammatory monocytes among circulating immune cells.

microglia [3] = assay: Microglia IL1 and TNFα in 5XFAD AD transgenic animals; format: in vivo, mice; conditions: 25 mg/kg orally 3 times a week for 4 weeks, 7 weeks of age
Text: 5XFAD transgenic mice, which are model of familial AD, were purchased from Jackson Laboratories (Oakley et al J Neurosci. 26:10129-40, 2006). These animals overexpress both mutant human APP(695) with the Swedish (K670N, M671L), Florida (I716V), and London (V7171) Familial Alzheimer's Disease (FAD) mutations and human PS1 harboring two FAD mutations, M146L and L286V. These transgenic mice rapidly recapitulate major features of amyloid pathology in AD by 8-10 weeks of age. Microglia abnormalities and neuroinflammation are also pronounced within this time window. Subsequently, neurodegeneration and behavioral dysfunction that mimic cognitive and psychiatric symptoms of human AD begin and are pronounced by 4-5 months of age. AD transgenic animals were orally treated 3 times a week for 4 weeks with 0.5% methylcellulose or ZLN005 (Sigma) at 25 mg/kg in 0.5% methylcellulose, starting at 3 weeks of age. For studies of microglia, 5[…]=10), 5XFAD-Ctrl (n=8) and WT (n=11) animals were sacrificed at 7 weeks of age. PBS-perfused brain tissues of sacrificed animals were digested with Collagenase IV and processed for flow cytometry. Brain microglia were phenotyped with antibodies directed against mouse IL1 and TNFα (Biolegend) for flow cytometric acquisition (LSRII, BD) and analysis (FlowJo). The results are summarized in FIG. 12; Y-axis represents % of microglia that express IL1 (A) and TNFα (B). […]

[4] = test system: CD45hi CD11b+F4/80+brain perivascular macrophages; assay: Frequency of brain perivascular macrophages in ALS transgenic animals; format: in vivo, mice; conditions: 25 mg/kg orally 3 times a week for 8 weeks, 13 weeks of age
Method: ALS transgenic animals were orally treated 3 times a week for 8 weeks with 0.5% methylcellulose or ZLN005 (Sigma) at 25 mg/kg in 0.5% methylcellulose, starting at 5 weeks of age. For measuring the frequency of CD45hi CD11b+F4/80+brain perivascular macrophages, ALS-Ctrl (n=13), ALS-ZLN (n=17), and WT animals (n=17) were sacrificed at 13 weeks of age. PBS-perfused brain tissues of sacrificed animals were digested with Collagenase IV and processed for flow cytometry. The results are summarized in FIG. 19; Y-axis represents % of brain perivascular macrophages among total brain immune cells in the brain. […] ANOVA was used for statistical analysis.

MPTP-treated animals = assay: Wheel-running test in MPTP model of PD; format: in vivo, mice; conditions: 25 mg/kg orally 7 days, accelerating speed 5-15 rpm, Day 8
Method: The wheel-running test has been widely used as one of the most reliable measurements of behavioral dysfunction in animal models of neurodegeneration ([…] et al, Behav Brain Res, 125:109-25, 2001). In this study, animals were trained to run on a treadmill at specific speed and training duration before undergoing a formal test of motor skills. Motor performance of animals was evaluated by the time (seconds) that they remained running on the treadmill, which required motor coordination and strength. […] Animals with microglia-specific deletion of Ppargc1a were generated as described in Example 1. At 7 weeks of age, these animals were subjected to 1.5 weeks of training on a treadmill at a constant speed 10 rpm (rotations per minute) and then 1.5 weeks of training at an accelerating speed from 5-15 rpm. After the training period at 10 weeks of age, animals were treated with MPTP and tested for motor performance at an accelerating speed from 5-15 rpm. […] Unpaired t-tests were used for statistical analyses.

In the case of CC(C)(C)c1ccc(-c2nc3ccccc3[nH]2)cc1 [ZLN005, 2-(4-tert-butylphenyl)-1H-benzimidazole], the “TNF-α production in microglia” value (microglia [1]; MPTP-treated Cre animals (microglial Ppargc1a deletion)) is reported as “failed to exert its anti-inflammatory effects”, the “TNF-α production in microglia” value (microglia [1]; MPTP-treated FF animals) is reported as “suppressed TNF-α production” and the latency to fall (ALS transgenic mice; accelerating speed 5-15 rpm, 16 weeks of age) is reported as 243.7 s. For the same molecule, the latency to fall (ALS transgenic mice; constant speed 10 rpm, 14.5 weeks of age) was 296.3 s, the “% of Ly6C+ inflammatory monocytes among circulating immune cells” value ([2]; 13 weeks of age) was “decreased” and the “% of total monocytes among circulating immune cells” value ([2]; 13 weeks of age) was “decreased”. The “serum levels of TNF-α” value ([2]; ELISA) was “significantly suppressed”, the “IL1 production in microglia” value (microglia [3]) was “decreased” and the “TNFα production in microglia” value (microglia [3]) was “decreased”. For the same molecule, the “percentage of brain perivascular macrophages among total brain immune cells” value [4] was “decreased”, the “latency to fall, wheel running” value (MPTP-treated animals; MPTP-treated Cre animals) was “not present in Cre animals” and the “latency to fall, wheel running” value (MPTP-treated animals; MPTP-treated FF animals) was “performed significantly better than vehicle treated mice”.
